Experiments:
human thrombin = target: T1, human thrombin (Homo sapiens, UniProt P00734); test: Inhibitory activity for thrombin (chromogenic substrate hydrolysis, 405 nm); assay type: biochemical; details: for Selectivity (trypsin/thrombin): IC50 for trypsin divided by IC50 for thrombin; for IC50: human thrombin, 20 min, pH 8.0, N-benzoyl-Phe-Val-Arg-p-nitroanilide
T1 construct: purchased Sigma T-6759
Procedure: 20 μl of each compound of the present invention was dissolved in 50% methanol in various concentrations and then added to each well of a microplate, to each of which 160 μl of the reaction medium containing 125 mM NaCl, 50 mM Tris-HCl (pH 8.0) and 2 mM synthetic substrate (N-benzoyl-Phe-Val-Arg-p-nitroanilide, Sigma B-7632) were added. 20 μl of human thrombin solution (5 units/ml, Sigma T-6759, manufactured by Sigma Co.) containing 0.1% bovine serum albumin was added to each well to initiate the enzymatic reaction. After 20 minutes, the hydrolysis of substrate was determined by measuring the absorbance at 405 nm. […] The selectivity index was calculated by dividing the IC50 value for trypsin by the IC50 value for thrombin. The thrombin inhibitory activity and the trypsin inhibitory activity for the compound of the present invention are shown in the following Table 2.

[1] = tested on: thrombin time (TT) in rat plasma; test: Thrombin time (TT) in rat plasma after oral administration; assay type: in vivo, SD male rats; details: TT after / TT before administration
Procedure: SD male rats weighing 220±20 g which had fasted overnight were used as experimental animals. Blood taken from the hearts of the experimental animals just before administration of the test compound and at 30, 60, 120 and 240 minutes after oral administration of the test compound was mixed with 0.108M sodium citrate in the ratio of 9:1. The mixtures thereby obtained were centrifuged at 15,000 rpm for 5 minutes at 4° C. to separate the plasma, which was stored at -20° C. until the TT was measured by means of the method described below.
200 μl of Owren's buffer was added to 50 μl of the plasma and 100 μl of the diluted plasma thereby obtained was injected into the vial of a coagulometer and then incubated for 2 minutes at 37° C. To each vial was added 100 μl of thrombin at a concentration of 20 U/ml, which had prewarmed at 37° C., to measure the time (TT) until clotting occurred. The ratio of the TT in rat plasma after administration of the test compound to the TT in rat plasma before administration of the test compound was calculated.

trypsin = test: Inhibitory activity for trypsin; assay type: biochemical

Structure (SMILES)	Selectivity (trypsin/thrombin) (human thrombin)	IC50 (human thrombin) [nM]	IC50 (trypsin) [nM]	Plasma TT ratio after administration to rat ([1]; 30 mg/kg oral)	Plasma TT ratio after administration to rat ([1]; 50 mg/kg oral)	Plasma TT ratio after administration to rat ([1]; 100 mg/kg oral)
CCOC(=O)CN1CCC[C@@H]1C(=O)N1CCC[C@H]1CCc1cc2ccc(C(=N)N)cc2n1CC [Compound 86, ethyl 2-[(R)-2-[[(S)-2-[2-(6-amidino-1-ethylindol-2-yl)ethyl]pyrrolidinyl]carbonyl]pyrrolidinyl]acetate]	25.0	27	–	1.49	4.51	5.19
CCOC(=O)CN1CCC[C@@H]1C(=O)N1CCC[C@H]1CCc1cc2ccc(C(=N)NC(=O)OC(C)C)cc2n1CC [Compound 270, ethyl 2-[(R)-2-[[(S)-2-[2-[1-ethyl-6-[imino[(methylethoxy)carbonylamino]methyl]indol-2-yl]ethyl]pyrrolidinyl]carbonyl]pyrrolidinyl]acetate]	–	–	–	1.46	4.30	–
CCOC(=O)CN1CCC[C@@H]1C(=O)N1CCC[C@H]1CCc1cc2ccc(C(=N)NC(=O)OCC)cc2n1CC [Compound 267, ethyl 2-[(R)-2-[[(S)-2-[2-[1-ethyl-6-[(ethoxycarbonylamino)iminomethyl]indol-2-yl]ethyl]pyrrolidinyl]carbonyl]pyrrolidinyl]acetate]	–	–	–	–	4.48	–
CCOC(=O)CN1CCCC1C(=O)N1CCCC1CCc1cc2ccc(C(=N)NC(=O)OC(Cl)(Cl)Cl)cc2n1CC [Compound 272, ethyl 2-[(R)-2-[[(S)-2-[2-[6-[[(trichloromethoxy)carbonylamino]iminomethyl]-1-ethylindol-2-yl]ethyl]pyrrolidinyl]carbonyl]pyrrolidinyl]acetate]	–	–	–	1.76	2.84	–
CCOC(=O)C(C(=O)N1CCC[C@H]1CCc1cc2ccc(C(=N)N)cc2n1CC)C1CCCC1 (stereo partly drawn) [Compound 44, ethyl 3-[(S)-2-[2-(6-aminido-1-ethylindol-2-yl)ethyl]pyrrolidinyl]-2-cyclopentyl-3-oxopropanoate]	33.9	9.23	313	–	–	–
CCn1c(CC[C@@H]2CCCN2C(=O)[C@H]2CCCN2CCCC(=O)O)cc2ccc(C(=N)N)cc21 [Compound 127, 4-[(R)-2-[[(S)-2-[2-(6-amidino-1-ethylindol-2-yl)ethyl]pyrrolidinyl]carbonyl]pyrrolidinyl]butanoic acid]	–	21.7	–	–	8.00	–
CCOC(=O)CN[C@@H](C(=O)N1CCC[C@H]1CCc1cc2ccc(C(=N)N)cc2n1CC)c1ccccc1 [Compound 38, ethyl 2-[[(R)-2-[2-[(S)-2-[2-(6-amidino-1ethylindol-2-yl)ethyl]pyrrolidinyl]-2-oxo1-phenyl]ethyl]amino]acetate]	24.2	7.59	184	–	–	–
CCn1c(CC[C@@H]2CCCN2C(=O)[C@H]2CCCN2CC(N)=O)cc2ccc(C(=N)N)cc21 [Compound 114, 1-ethyl-2-[2-[(S)-1-[[(R)-1-(carbamo-ylmethyl)pyrrolidin-2-yl]carbonyl]pyrrolidin-2-yl]ethyl]indole-6-carboxamidine]	28.8	17.4	500	–	–	–
CCn1c(CCC2CCCN2C(=O)C2CCCN2C(CCO)C(=O)O)cc2ccc(C(=N)N)cc21 [Compound 118, 2-[(R)-2-[[(S)-2-[2-(6-amidino-1-ethylindol-2-yl)ethyl]pyrrolidinyl]carbonyl]pyrrolidinyl]-4-hydroxy-butanoic acid]	14.5	12.3	–	–	8.80	–
CCOC(=O)CCCN1CCC[C@@H]1C(=O)N1CCC[C@H]1CCc1cc2ccc(C(=N)N)cc2n1CC [Compound 126, ethyl 4-[(R)-2-[[(S)-2-[2-(6-amidino-1-ethylindol-2-yl)ethyl]pyrrolidinyl]carbonyl]pyrrolidinyl]butanoate]	–	40.5	–	–	5.40	–

Now from value to molecule, other results behind:

Selectivity (trypsin/thrombin) (human thrombin)	IC50 (human thrombin) [nM]	IC50 (trypsin) [nM]	Structure (SMILES)	Plasma TT ratio after administration to rat ([1]; 30 mg/kg oral)	Plasma TT ratio after administration to rat ([1]; 50 mg/kg oral)	Plasma TT ratio after administration to rat ([1]; 100 mg/kg oral)
–	10.4	–	CCn1c(CC[C@@H]2CCCN2C(=O)[C@H]2CCCN2C(=O)[C@@H](N)CC(=O)O)cc2ccc(C(=N)N)cc21 [Compound 149, 4-[(R)-2-[[(S)-2-[2-(6-amidino-1-ethylindol-2-yl)ethyl]pyrrolidinyl]carbonyl]pyrrolidinyl]-(S)-3-amino-4-oxobutanoic acid]	–	9.24	–
48.9	5.21	–	CCn1c(CC[C@@H]2CCCN2C(=O)[C@H]2CCCN2C(=O)C[C@H](N)C(=O)O)cc2ccc(C(=N)N)cc21 [Compound 161, 4-[(R)-2-[[(S)-2-[2-(6-amidino-1-ethylindol-2-yl)ethyl]pyrrolidinyl]carbonyl]pyrrolidinyl]-(S)-2-amino-4-oxobutanoic acid]	–	7.62	–
19.2	23	443	CCn1c(CC[C@@H]2CCCN2C(=O)[C@H]2CCCN2C(=O)[C@@H](N)CC(N)=O)cc2ccc(C(=N)N)cc21 [Compound 148, 1-ethyl-2-[2-[(S)-1-[[(R)-1-((S)-2-amino-3-carbamoylpropanoyl)pyrrolidin-2-yl]carbonyl]pyrrolidin-2-yl]ethyl]indole-6-carboxamidine]	–	–	–
45.0	7.3	329	CCn1c(CCC2CCCN2C(=O)C2CCCN2C(=O)CC(NS(C)(=O)=O)C(N)=O)cc2ccc(C(=N)N)cc21 [Compound 162, 1-ethyl-2-[2-[(S)-1-[[1-[(R)-1-[3-carbamoyl-(S)-3-[(methanesulfonyl)amino]propanoyl]pyrrolidin-2-yl]carbonyl]pyrrolidin-2-yl]ethyl]indole-6-carboxamidine]	–	–	–
31.9	33.5	1070	CC(=O)N1CCC[C@@H]1C(=O)N1CCC[C@H]1CCc1cc2ccc(C(=N)N)cc2n1C [Compound 170, 1-methyl-2-[2-[(S)-1-[((R)-1-acetylpyrrolidin-2-yl)-carbonyl]pyrrolidin-2-yl]ethyl]indole-6-carboxamidine]	–	–	–
18.6	33.1	617	CCn1c(CC[C@@H]2CCCN2C(=O)[C@H]2CCCN2C(=O)CCCN)cc2ccc(C(=N)N)cc21 [Compound 166, 1-ethyl-2-[2-[(S)-1-[[(R)-1-(4-aminobutanoyl)pyrrolidin-2-yl]carbonyl]pyrrolidin-2-yl]ethyl]indole-6-carboxamidine]	–	–	–
57.9	9.51	551	CCn1c(CC[C@@H]2CCCN2C(=O)[C@H]2CCCN2S(C)(=O)=O)cc2ccc(C(=N)N)cc21 [Compound 184, 1-ethyl-2-[2-[(S)-1-[[(R)-1-(methanesulfonyl)pyrrolidin-2-yl]carbonyl]pyrrolidin-2-yl]ethyl]indole-6-carboxamidine]	–	–	–
26.6	18.8	500	CCn1c(CC[C@@H]2CCCN2C(=O)[C@H]2CCCN2C(=O)CCC(=O)O)cc2ccc(C(=N)N)cc21 [Compound 177]	–	–	–
20.7	19.3	–	CCOC(=O)[C@@H](N)CC(=O)N1CCC[C@@H]1C(=O)N1CCC[C@H]1CCc1cc2ccc(C(=N)N)cc2n1CC [Compound 159, ethyl 4-[(R)-2-[[(S)-2-[2-(6-amidino-1-ethylindol-2-yl)-ethyl]pyrrolidinyl]carbonyl]pyrrolidinyl]-(S)-2-amino-4-oxobutanoate]	–	6.23	–

From patent US6201006A, “Aromatic amidine derivatives useful as selective thrombin inhibitors” (C & C Research Laboratories, priority 1996, dated 2001)
